From PubChem BioAssay (NCI)
“And” between values parts separate entries of the source, which are not always exact repeats. Equal entries are not always repeated.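 Interpolation was linear, between the two tested concentrations surrounding the appropriate level; five concentrations were tested over 48 hours in 96-well plates. Abbreviation: GI50, concentration required for 50% inhibition of growth. TGI: total growth inhibition.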

What was measured:
Assay in all cases: inhibition of tumour cell growth, NCI panel, 48 h
[1] = system: CAKI-1 renal
[2] = system: M14 melanoma
[3] = system: NCI-H23 lung
[4] = system: NCI/ADR-RES ovarian
[5] = system: OVCAR-3 ovarian
[6] = system: OVCAR-5 ovarian
[7] = system: OVCAR-8 ovarian
[8] = system: SK-MEL-28 melanoma
[9] = system: U251 CNS
[10] = system: UACC-62 melanoma

Row | Compound | GI50 [1] [µM] | TGI [1] | GI50 [2] [µM] | TGI [2] | GI50 [3] [µM] | TGI [3] | GI50 [4] [µM] | TGI [4] [µM] | GI50 [5] [µM] | TGI [5] [µM] | GI50 [6] [µM] | TGI [6] | GI50 [7] [µM] | TGI [7] [µM] | GI50 [8] [µM] | TGI [8] [µM] | GI50 [9] [µM] | TGI [9] | GI50 [10] [µM] | TGI [10]
1 | Cn1ccnc1C(=O)/C=C/c1ccc(C(=O)Nc2nc3ccccc3[nH]2)cc1 | 1.63 | > 25 µM | 10.3 | > 25 µM | 3.34 | > 25 µM | 4.95 | > 25 | 0.894 | 17.2 | 5.6 | > 25 µM | 8.99 | > 25 | > 25 | > 25 | 0.916 | > 25 µM | 6.07 | > 25 µM
2 | COc1ccc(/C=C2\COc3ccc(-c4ccccc4)cc3C2=O)cc1O | 4.61 | 32.9 µM | 3.41 | 14.6 µM | 4.09 | 16.6 µM | 3.39 | 14 | 1.76 | 4.97 | 4.13 | 14.7 µM | 2.43 | 6.56 | 1.88 | 3.96 | 1.83 | 4.27 µM | 3.59 | 18.1 µM
3 | CC/C=C\CCC/C=C1/C(=O)C=C[C@@H]1C/C=C\CCCC(=O)O | 3.43 | 11.9 µM | 3.89 | 17.3 µM | 3.37 | 13.7 µM | 2.96 | 11.8 | 3.36 | 10.9 | 4.85 | 15.3 µM | 2.96 | 9.87 | 3.13 | 10.6 | 3.7 | 13.6 µM | 2.22 | 4.93 µM
4 | Cn1c(O)c(C(=O)Nc2ccc([N+](=O)[O-])cc2)c(=O)n(C)c1=S |  | 10.6 µM |  | 22.9 µM |  | 3.26 µM |  | 11 |  | 8.02 |  | 16.4 µM |  | 14.9 |  | 3.68 |  | 7.67 µM |  | 3.64 µM
5 | O=[As](O)(O)c1ccc(Cc2ccc([As](=O)(O)O)cc2)cc1 |  | 2.78 µM |  | 2.46 µM |  | 2.26 µM |  | 6.79 |  | 2.64 |  | 4.65 µM |  | 1.35 |  | 2.92 |  | 1.51 µM |  | 2.62 µM
6 | COc1cc(C2C(C#N)=C(N)OC3=C2C(=O)c2ccccc2C3=O)cc(OC)c1OC (stereo not drawn) | 0.736 | 20.6 µM | 0.395 | 16.1 µM | 0.713 | 4.34 µM | 3.23 | 22.5 | 0.493 | 4.18 | 4.26 | 18.6 µM | 1.12 | 24.1 | 6.72 | 22.9 | 3.38 | 44 µM | 0.396 | 2.02 µM
7 | N#Cc1nc(-c2ccccc2)oc1S(=O)(=O)N1CCOCC1 | 1.61 | 3.04 µM | 2.26 | 7.42 µM | 8.6 | 26 µM | 14.8 | 84.2 | 2.02 | 3.76 | 13.6 | 27.6 µM | 3.55 | 16.2 | 2.46 | 6.5 | 17.7 | 42.2 µM | 9.33 | 21.4 µM
8 | O=C(/C=C\c1ccnc2ccccc12)c1ccc([N+](=O)[O-])cc1 | 13.2 | > 100 µM | 4.94 | 19.4 µM | 5.54 | 59.5 µM | 8.68 | > 100 | 7.23 | 43.2 | > 60.6 | > 100 µM | 12.4 | > 100 | 20.5 | > 83.2 | 10.6 | 41.6 µM | 12.5 | > 86.3 µM
9 | CC(C)(C)CC(C)(C)c1ccc(OCCOCCSC(=N)N)cc1 | 2.28 | 5.87 µM | 1.8 | 3.39 µM | 2.85 | 7.38 µM | 2.59 | 6.61 | 2.05 | 4.48 | 2.4 | 6.5 µM | 1.86 | 3.56 | 1.72 | 3.24 | 1.65 | 3.04 µM | 1.75 | 3.24 µM
10 | COC(=O)CCC1=C(C)c2cc3[n-]c(cc4nc(cc5[n-]c(cc1n2)c(CCC(=O)OC)c5C)C=C4C)cc3C.[Cd+2] | 12.4 | 38.1 µM | 5.54 | 22.8 µM | 3.03 | 16.7 µM | 39.8 | > 100 | 1.73 | 3.81 | 16.8 | 39.7 µM | 9.95 | 75.4 | 4.69 | 21.2 | 2.82 | 9.98 µM | 2 | 5.19 µM
11 | CN(Cc1cnc2nc(N)nc(N)c2n1)c1ccc(C(=O)NC(CCC(=O)O)C(=O)O)cc1 (stereo not drawn) | 0.0544 | > 100 µM | 0.0777 | > 100 µM | 0.354 | > 100 µM | 0.0722 | > 100 | 1.23 | > 100 | 0.668 | > 100 µM | 0.0532 | > 100 | 21 | > 100 | 0.435 | > 100 µM | 0.145 | > 100 µM
12 | CC(=O)Oc1cccc2c1C(=O)c1c(OC(C)=O)cc(C)cc1C2=O |  | > 100 µM |  | > 100 µM |  | > 100 µM |  | > 100 |  | > 100 |  | > 100 µM |  | > 100 |  | > 100 |  | > 100 µM |  | > 100 µM
13 | C[Se]C(=O)CC1=C2C=C(F)C=CC2/C(=C\c2ccc(S(C)=O)cc2)C1C (stereo not drawn) | 0.0253 | 0.478 µM | 0.0387 | 1.52 µM | 0.065 | 1.03 µM | 0.0776 | 3.96 | 0.0336 | 0.26 | 0.114 | 1.49 µM | 0.0447 | > 100 | 0.0343 | 0.891 | < 0.0181 | 1.43 µM | 0.41 | 2.3 µM
14 | O=C(NNS(=O)(=O)c1cc(C(F)(F)F)cc(C(F)(F)F)c1)c1cnn(-c2ccc(Cl)cc2)c1C(F)(F)F | 26.2 | 57.2 µM | 16.3 | 30.9 µM | 18.5 | 40.8 µM | 19.6 | 41 | 15.3 | 33.4 | 17.8 | 33.5 µM | 16.1 | 51.7 | 20.3 | 51.7 | 17.3 | 35.3 µM | 14.5 | 30 µM
15 | O=c1[nH]c(-c2ccc(C(F)(F)F)cc2)nc2c1CSCC2 | 13.7 | > 100 µM | 68.7 | > 100 µM | 41.9 | > 100 µM | 35.8 | > 100 | 27 | > 100 | 79.9 | > 100 µM | 26.3 | 99 | 80.3 | > 100 | 17.9 | > 89.6 µM | > 100 | > 100 µM
16 | COc1ccccc1-n1c(SCc2cc(OC)c(OC)c(OC)c2)nc2ccc(Cl)cc2c1=O | 2.8 | > 100 µM | 2.22 | > 100 µM | 5.9 | > 100 µM | 2.25 | > 100 | 2.21 | 15.9 | 7.47 | > 100 µM | 8.86 | > 100 | 5.76 | > 100 | 3.72 | > 100 µM | 3.04 | > 100 µM
17 | COc1ccc(C(O)c2cc3c(N)c(C(=O)Nc4cccc(Br)c4)sc3nc2C)cc1 (stereo not drawn) | 0.141 | > 32 µM | 0.0318 | 14.1 µM | 0.181 | > 60.4 µM | 0.104 | 4.87 | 0.0949 | 0.322 | 0.216 | > 100 µM | 0.139 | > 55.6 | 22.3 | > 100 | 0.119 | > 41.1 µM | 0.309 | > 38.6 µM
18 | Oc1ccccc1-n1c(-c2ccccc2)ccc1-c1ccccc1 | 3.85 | 18.1 µM | 3.71 | 29.2 µM | 4.79 | 33.3 µM | 5.13 | 23.1 | 9.54 | 21.7 | 15.2 | 48.7 µM | 12.1 | 29.6 | 10.8 | 31.6 | 7.66 | 20.6 µM | 5.43 | > 100 µM
19 | C=C1C(C)C2C(Cc3ccccc3)NC(=O)C23C(OC(C)=O)/C=C/C(C)(O)CC(C)C/C=C/C3C1O (stereo not drawn) |  | 3.08 µM |  | > 100 µM |  | 91.6 µM |  | > 100 |  | > 100 |  | > 100 µM |  | > 100 |  | > 97.7 |  | 18.4 µM |  | > 91.8 µM
20 | CCSC1=CC(=O)c2ccccc2C1=O | 1.96 | 5.5 µM | 12.8 | 26 µM | 9.05 | 26.6 µM | 2.37 | 7.39 | 1.46 | 2.81 | 16.9 | 32.5 µM | 1.75 | 3.8 | 14.4 | 28.9 | 5.81 | 16.5 µM | 4.79 | 17.2 µM
21 | CN(C)c1ccc(/C=C/c2ccnc3ccccc23)cc1 | 9.68 | > 100 µM and 45 µM | 2.55 | > 100 µM and 12.7 µM | 3.83 | > 100 µM and 23 µM | 2.26 |  | 2.71 |  | 6.9 | > 100 µM and 49.6 µM | 5.68 | > 100 | 9.01 | > 100 | 4.04 | > 100 µM and 63.4 µM | 3.11 | > 100 µM and 29.5 µM
